Assay results published in patent US8835429B2, “Pyrimidine compounds, their use as mTOR kinase and Pl3 kinase inhibitors, and their syntheses” (Wyeth LLC, priority 2009, dated 2014).

What was measured:
[1] = biological target: PI3K-alpha (Homo sapiens, UniProt P42336); experiment: PI3K-alpha fluorescence polarization assay; assay type: biochemical; conditions: 20 μM PIP2, 25 μM ATP; read-out: PI3Kα IC50
Procedure, shortened: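 PIP2 (diC8) and ATP substrate with PI3K in 20 mM HEPES pH 7.5, 2 mM MgCl2, 0.05% CHAPS, 0.01% βME; 1% DMSO final; 30–60 min reaction. Stopped with EDTA plus GST-GRP (70 nM) and TAMRA probe (10 nM); FP (mP) read after 30–90 min, with no-enzyme controls.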

[2] = biological target: PI3K-gamma (Homo sapiens, UniProt P48736); experiment: PI3K-gamma fluorescence polarization assay; assay type: biochemical; conditions: 20 μM PIP2, 25 μM ATP; read-out: PI3Kγ IC50
Sequence of PI3K-gamma (P48736 whole entry, species assumed): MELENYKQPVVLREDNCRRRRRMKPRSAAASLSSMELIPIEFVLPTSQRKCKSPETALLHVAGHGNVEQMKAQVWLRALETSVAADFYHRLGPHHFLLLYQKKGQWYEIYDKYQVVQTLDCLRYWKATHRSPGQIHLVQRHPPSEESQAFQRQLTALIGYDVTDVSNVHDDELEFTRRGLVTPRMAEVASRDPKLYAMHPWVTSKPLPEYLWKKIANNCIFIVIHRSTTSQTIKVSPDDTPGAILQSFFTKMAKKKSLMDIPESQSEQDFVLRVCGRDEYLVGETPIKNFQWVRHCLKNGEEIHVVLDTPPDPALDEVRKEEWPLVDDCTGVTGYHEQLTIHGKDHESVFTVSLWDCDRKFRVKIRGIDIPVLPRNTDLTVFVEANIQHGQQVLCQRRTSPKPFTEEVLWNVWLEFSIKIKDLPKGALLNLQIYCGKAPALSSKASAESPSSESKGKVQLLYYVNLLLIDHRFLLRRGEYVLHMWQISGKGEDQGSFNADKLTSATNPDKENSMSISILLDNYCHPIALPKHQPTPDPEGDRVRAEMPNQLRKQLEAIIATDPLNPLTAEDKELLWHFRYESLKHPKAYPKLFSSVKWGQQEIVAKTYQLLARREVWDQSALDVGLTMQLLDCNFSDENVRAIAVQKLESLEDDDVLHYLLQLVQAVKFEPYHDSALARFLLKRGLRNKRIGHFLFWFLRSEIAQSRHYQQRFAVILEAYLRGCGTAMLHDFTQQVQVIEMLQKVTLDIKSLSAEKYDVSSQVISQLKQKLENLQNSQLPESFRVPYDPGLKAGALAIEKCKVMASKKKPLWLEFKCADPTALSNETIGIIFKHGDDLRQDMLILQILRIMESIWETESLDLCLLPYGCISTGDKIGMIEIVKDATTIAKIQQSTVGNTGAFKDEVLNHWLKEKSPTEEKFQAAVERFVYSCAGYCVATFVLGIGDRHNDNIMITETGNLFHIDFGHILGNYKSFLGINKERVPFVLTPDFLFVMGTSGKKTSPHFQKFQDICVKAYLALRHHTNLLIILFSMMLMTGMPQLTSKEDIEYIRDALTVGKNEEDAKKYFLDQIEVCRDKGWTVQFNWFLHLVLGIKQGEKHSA
Protocol: The reaction buffer was 20 mM HEPES, pH 7.5, 2 mM MgCl2, 0.05% CHAPS; and 0.01% βME (added fresh). The stop/detection buffer was 100 mM HEPES, pH 7.5, 4 mM EDTA, 0.05% CHAPS; ATP 20 mM in water; PIP2 (diC8, Echelon, Salt Lake City Utah cat #P-4508) 1 mM in water (MW=856.5). The GST-GRP was 1.75 mg/mL or 1.4 mg/mL in 10% glycerol. The red detector (TAMRA) was 2.5 μM. Nunc 384-well black polypropylene fluorescent plates were used for PI3K assays.
The assay is run by placing 5 μL of diluted enzyme per well, then 5 μL of diluted compound (or 9.5 μL enzyme then 0.5 μL compound in DMSO) is added and mixed. Then, 10 μL substrate is added to start the reaction. The samples are incubated 30-60 minutes, then the reaction is stopped by adding 20 μL stop/detector mix. PI3K is diluted with reaction buffer (e.g., 5 μL or 7.5 μL PI3K into 620 μL reaction buffer), and 5 μL of diluted enzyme is used per well. A 5 μL portion of reaction buffer or of drug diluted in buffer (e.g., 4 μL/100 so final DMSO is 1% in reaction) is added to each. Pipetting up and down mixes the samples. Alternatively, the enzyme can be diluted to 1215 μL. In this case 9.8 μL is added per well and 0.2 μL compound is added in DMSO.
To prepare 1 mL of substrate solution, 955 μL reaction buffer, 40 μL PIP2, and 2.5 μL ATP are mixed. 10 μL of substrate is added to each well to start the reaction. […] The stop/detector mix is prepared by mixing 4 μL red detector and 1.6 μL or 2.0 μL GST-GRP with 1 mL stop buffer, which results in 10 nM probe and 70 nM GST-GRP. 20 μL of the stop/detector mix is added to each well to stop the reaction. The plates are read after 30-90 minutes keeping the red probe solutions dark. For the zero time point, stop/detector mix is added to the enzyme just before adding substrate. For an extra control, stop/detector mix is added to buffer (no enzyme) and substrate or to just buffer (no substrate). […] The recommended reaction has 0.06 μL per 20 μL (0.015 μg/20 μL) or 0.01125 μg/15 μL or 0.75 μg/mL.
Plates are read on machines with filters for TAMRA. The units are mP with no enzyme controls reading app 190-220 mP units. Fully active enzyme reduces fluorescence polarization down to 70-100 mP after 30 minutes. An active compound raises the mP values halfway to control or to 120-150 mP units.

[3] = test system: LNCap; experiment: In vitro cell growth assay (MTS), LNCap; assay type: cell-based; conditions: LNCaP, 72 h, human prostate line, three days after drug treatment
[4] = test system: MDA468; experiment: In vitro cell growth assay (MTS), MDA468; assay type: cell-based; conditions: 72 h, human breast line MDA468, three days after drug treatment, read-out: MDA IC50
[5] = biological target: mTOR (Homo sapiens, UniProt P42345); experiment: mTOR enzyme assay (DELFIA, purified FLAG-TOR, His6-S6K substrate); assay type: biochemical; design: FLAG; conditions: 100 μM ATP, 2 hours
Sequence of mTOR (P42345 1360-2549 limits assumed): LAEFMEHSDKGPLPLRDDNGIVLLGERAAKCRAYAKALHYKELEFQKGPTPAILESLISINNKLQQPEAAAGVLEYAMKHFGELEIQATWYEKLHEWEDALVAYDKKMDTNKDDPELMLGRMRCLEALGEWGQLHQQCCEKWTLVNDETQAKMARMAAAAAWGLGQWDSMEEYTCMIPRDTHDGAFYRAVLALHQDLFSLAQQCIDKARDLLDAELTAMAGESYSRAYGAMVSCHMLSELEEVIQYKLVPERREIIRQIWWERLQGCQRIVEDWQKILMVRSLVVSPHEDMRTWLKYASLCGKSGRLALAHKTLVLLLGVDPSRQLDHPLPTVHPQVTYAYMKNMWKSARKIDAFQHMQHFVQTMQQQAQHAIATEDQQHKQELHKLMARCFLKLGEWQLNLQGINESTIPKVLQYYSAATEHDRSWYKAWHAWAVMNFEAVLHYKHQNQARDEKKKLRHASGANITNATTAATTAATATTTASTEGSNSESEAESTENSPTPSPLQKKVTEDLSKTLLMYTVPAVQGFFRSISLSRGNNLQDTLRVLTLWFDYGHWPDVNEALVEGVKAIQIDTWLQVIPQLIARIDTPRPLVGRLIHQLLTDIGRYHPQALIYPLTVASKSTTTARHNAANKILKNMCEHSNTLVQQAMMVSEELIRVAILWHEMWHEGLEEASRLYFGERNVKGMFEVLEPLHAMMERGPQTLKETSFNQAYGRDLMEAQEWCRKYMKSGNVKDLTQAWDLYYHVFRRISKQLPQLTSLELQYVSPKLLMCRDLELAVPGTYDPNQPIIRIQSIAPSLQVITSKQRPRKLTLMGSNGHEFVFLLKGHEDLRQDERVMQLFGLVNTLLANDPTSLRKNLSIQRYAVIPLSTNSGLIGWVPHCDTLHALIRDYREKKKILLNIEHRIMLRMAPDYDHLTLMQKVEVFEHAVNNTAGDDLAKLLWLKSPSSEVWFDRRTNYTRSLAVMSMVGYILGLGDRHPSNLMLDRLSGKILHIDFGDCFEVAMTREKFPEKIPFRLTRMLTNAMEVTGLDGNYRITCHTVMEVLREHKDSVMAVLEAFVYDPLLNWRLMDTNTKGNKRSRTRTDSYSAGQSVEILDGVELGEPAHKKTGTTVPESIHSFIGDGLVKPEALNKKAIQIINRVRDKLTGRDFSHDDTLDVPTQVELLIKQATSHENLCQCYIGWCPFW

Sequence of PI3K-alpha (P42336 whole entry, species assumed): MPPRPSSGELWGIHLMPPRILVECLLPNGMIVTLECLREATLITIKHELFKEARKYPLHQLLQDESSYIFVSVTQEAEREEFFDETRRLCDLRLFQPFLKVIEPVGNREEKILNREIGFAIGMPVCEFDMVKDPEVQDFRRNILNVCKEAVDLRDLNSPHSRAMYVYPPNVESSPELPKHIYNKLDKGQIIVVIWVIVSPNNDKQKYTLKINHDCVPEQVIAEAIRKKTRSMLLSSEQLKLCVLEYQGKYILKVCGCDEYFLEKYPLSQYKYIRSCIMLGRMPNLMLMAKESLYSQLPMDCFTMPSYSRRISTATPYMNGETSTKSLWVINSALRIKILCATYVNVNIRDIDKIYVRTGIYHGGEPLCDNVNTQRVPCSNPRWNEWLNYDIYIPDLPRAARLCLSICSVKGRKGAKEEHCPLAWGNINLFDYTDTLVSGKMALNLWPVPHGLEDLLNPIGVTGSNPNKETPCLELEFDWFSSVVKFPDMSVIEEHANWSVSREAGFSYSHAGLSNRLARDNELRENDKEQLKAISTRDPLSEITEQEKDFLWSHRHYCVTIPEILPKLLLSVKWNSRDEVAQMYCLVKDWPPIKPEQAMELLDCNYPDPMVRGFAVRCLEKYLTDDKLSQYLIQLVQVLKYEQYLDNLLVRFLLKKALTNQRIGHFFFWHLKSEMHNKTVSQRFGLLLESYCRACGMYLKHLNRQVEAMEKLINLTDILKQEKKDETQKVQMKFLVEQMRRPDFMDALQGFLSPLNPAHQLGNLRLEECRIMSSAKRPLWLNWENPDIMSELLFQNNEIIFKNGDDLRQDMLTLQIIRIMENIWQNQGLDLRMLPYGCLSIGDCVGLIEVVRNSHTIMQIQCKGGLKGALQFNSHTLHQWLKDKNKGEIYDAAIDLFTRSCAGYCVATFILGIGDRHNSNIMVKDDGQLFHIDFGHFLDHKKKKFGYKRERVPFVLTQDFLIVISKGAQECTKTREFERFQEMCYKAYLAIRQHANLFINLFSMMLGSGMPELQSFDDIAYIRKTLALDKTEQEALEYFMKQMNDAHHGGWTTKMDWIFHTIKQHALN
Sequence of PI3K-alpha (P27986 whole entry partner, species assumed): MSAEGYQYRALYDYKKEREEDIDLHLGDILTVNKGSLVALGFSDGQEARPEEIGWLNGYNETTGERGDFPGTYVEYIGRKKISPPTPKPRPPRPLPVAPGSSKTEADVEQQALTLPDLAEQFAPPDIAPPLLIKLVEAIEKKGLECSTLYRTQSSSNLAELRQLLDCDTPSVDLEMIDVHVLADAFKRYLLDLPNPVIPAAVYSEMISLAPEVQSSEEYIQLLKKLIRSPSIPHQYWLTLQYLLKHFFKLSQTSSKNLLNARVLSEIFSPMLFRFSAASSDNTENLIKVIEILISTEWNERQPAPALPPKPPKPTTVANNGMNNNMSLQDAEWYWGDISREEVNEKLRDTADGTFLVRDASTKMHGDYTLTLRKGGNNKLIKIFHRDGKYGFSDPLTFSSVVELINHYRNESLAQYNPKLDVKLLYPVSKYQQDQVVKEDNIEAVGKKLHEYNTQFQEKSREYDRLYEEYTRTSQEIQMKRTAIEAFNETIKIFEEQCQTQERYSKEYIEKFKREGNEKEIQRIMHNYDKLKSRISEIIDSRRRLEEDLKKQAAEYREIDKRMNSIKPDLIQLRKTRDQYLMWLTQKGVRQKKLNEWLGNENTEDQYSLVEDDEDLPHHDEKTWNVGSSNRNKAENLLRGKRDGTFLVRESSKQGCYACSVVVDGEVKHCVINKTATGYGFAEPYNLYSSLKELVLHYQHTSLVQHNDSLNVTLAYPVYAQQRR

Row | Structure (SMILES) | IC50 [1] [nM] | IC50 [2] [nM] | IC50 [3] [nM] | IC50 [4] [nM] | IC50 [5] [nM]
1 | O=C(Nc1ccncc1)Nc1ccc(-c2nc(N3C4CCC3COC4)cc(N3C[C@@H]4C[C@H]3CO4)n2)cc1 [1-(4-{4-[(1S,4S)-2-oxa-5-azabicyclo[2.2.1]hept-5-yl]-6-(3-oxa-8-azabicyclo[3.2.1]oct-8-yl)pyrimidin-2-yl}phenyl)-3-pyridin-4-ylurea] | 2810 | ≥ 10000 | 30 | 75 | 3.05
2 | CC(C)N1CCN(C(=O)c2ccc(NC(=O)Nc3ccc(-c4nc(N5C[C@@H](C)O[C@@H](C)C5)cc(N5C6CCC5COC6)n4)cc3)cc2)CC1 [1-(4-{4-[(2R,6S)-2,6-dimethylmorpholin-4-yl]-6-(3-oxa-8-azabicyclo[3.2.1]oct-8-yl)pyrimidin-2-yl}phenyl)-3-(4-{[4-(1-methylethyl)piperazin-1-yl]carbonyl}phenyl)urea] | 293 | 915 | ≤ 0.8 | 0.8 | 2.7
3 | C[C@@H]1CN(c2cc(N3C4CCC3COC4)nc(-c3ccc(NC(=O)Nc4ccc(N5CCN(C)CC5)cc4)cc3)n2)C[C@H](C)O1 [1-(4-{4-[(2R,6S)-2,6-dimethylmorpholin-4-yl]-6-(3-oxa-8-azabicyclo[3.2.1]oct-8-yl)pyrimidin-2-yl}phenyl)-3-[4-(4-methylpiperazin-1-yl)phenyl]urea] | 1550 | 6440 | 30 | 130 | 4.4
4 | C[C@@H]1CN(c2cc(N3C4CCC3COC4)nc(-c3ccc(NC(=O)Nc4ccc(N5CCN(C)CC5)nc4)cc3)n2)C[C@H](C)O1 [1-(4-{4-[(2R,6S)-2,6-dimethylmorpholin-4-yl]-6-(3-oxa-8-azabicyclo[3.2.1]oct-8-yl)pyrimidin-2-yl}phenyl)-3-[6-(4-methylpiperazin-1-yl)pyridin-3-yl]urea] | 1690 | 15300 | 100 | 200 | 15.2
5 | C[C@@H]1CN(c2cc(N3C4CCC3COC4)nc(-c3ccc(NC(=O)Nc4ccncc4)cc3)n2)C[C@H](C)O1 [1-(4-{4-[(2R,6S)-2,6-dimethylmorpholin-4-yl]-6-(3-oxa-8-azabicyclo[3.2.1]oct-8-yl)pyrimidin-2-yl}phenyl)-3-pyridin-4-ylurea] | 1340 | 5370 | 50 | 280 | 2.6
6 | C[C@@H]1CN(c2cc(N3C4CCC3COC4)nc(-c3ccc(NC(=O)Nc4ccc(C(=O)N5CCN(C)CC5)cc4)cc3)n2)C[C@H](C)O1 [1-(4-{4-[(2R,6S)-2,6-dimethylmorpholin-4-yl]-6-(3-oxa-8-azabicyclo[3.2.1]oct-8-yl)pyrimidin-2-yl}phenyl)-3-{4-[(4-methylpiperazin-1-yl)carbonyl]phenyl}urea] | 180 | 1030 | ≤ 0.8 | 0.8 | 3.55
7 | C[C@@H]1COCCN1c1cc(N2C3CCC2COC3)nc(-c2ccc(NC(=O)Nc3ccc(N4CCN(C)CC4)cc3)cc2)n1 [1-(4-{4-[(3R)-3-methylmorpholin-4-yl]-6-(3-oxa-8-azabicyclo[3.2.1]oct-8-yl)pyrimidin-2-yl}phenyl)-3-[4-(4-methylpiperazin-1-yl)phenyl]urea] | 864 | 3500 | ≤ 0.8 | 1 | 1.25
8 | C[C@@H]1COCCN1c1cc(N2C3CCC2COC3)nc(-c2ccc(NC(=O)Nc3ccc(N4CCN(C)CC4)nc3)cc2)n1 [1-(4-{4-[(3R)-3-methylmorpholin-4-yl]-6-(3-oxa-8-azabicyclo[3.2.1]oct-8-yl)pyrimidin-2-yl}phenyl)-3-[6-(4-methylpiperazin-1-yl)pyridin-3-yl]urea] | 1100 | 2980 | 3.5 | 8 | 2.5
